Results published in patent publication US8710092B2, “Substituted indolo 4,3 FG quinolines useful for treating migraine” (Map Pharmaceuticals, Inc., priority 2009, dated 2014).
Like-named read-outs stand apart in the source and are kept apart here.

Legend:
5-HT2c receptor [1] = target: T1, 5-HT2c receptor (Homo sapiens, UniProt P28335); assay: FLIPR agonist assay at the 5-HT2c receptor (analogous to Example 2); format: cell-based; settings: for agonist activity at the 5-HT2c receptor: FLIPR
T1 sequence (P28335 33-458): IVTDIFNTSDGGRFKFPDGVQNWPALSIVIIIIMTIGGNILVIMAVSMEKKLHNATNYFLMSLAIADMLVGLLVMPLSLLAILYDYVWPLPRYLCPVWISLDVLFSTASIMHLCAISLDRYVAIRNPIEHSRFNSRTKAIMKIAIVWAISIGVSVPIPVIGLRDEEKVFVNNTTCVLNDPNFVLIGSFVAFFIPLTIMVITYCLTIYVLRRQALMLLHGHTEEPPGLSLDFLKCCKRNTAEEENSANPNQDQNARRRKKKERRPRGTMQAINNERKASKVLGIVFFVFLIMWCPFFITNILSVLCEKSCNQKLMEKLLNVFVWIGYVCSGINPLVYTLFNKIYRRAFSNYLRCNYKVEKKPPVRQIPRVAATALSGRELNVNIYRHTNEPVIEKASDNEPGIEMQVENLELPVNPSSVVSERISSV

5-HT2B receptor [2] = target: T2, 5-HT2B receptor (Homo sapiens, UniProt P41595); assay: FLIPR assay, agonist selectivity at the 5-HT2B receptor; format: cell-based
T2 construct: Millipore, Inc. (GPCR Profiler Service Laboratory, St. Charles, Mo.)
Protocol: A FLIPR assay was conducted to monitor agonist selectivity for 1-methyl-dihydroergotamine against the 5-HT2B receptor. The assay was completed with an eight point, 4 fold serial dilution series starting with 10 μM concentration to obtain full dose response curve. Percentage activation values were determined for 1-methyl-dihydroergotamine on the 5-HT2B receptor. Agonist selectivity was determined upon initial addition of for 1-methyl-dihydroergotamine followed by a 5 minute incubation at 25° C. Following compound incubation, reference agonists were added at EC80. Agonist percentage activation determinations were obtained by assaying 1-methyl-dihydroergotamine and referencing the Emax control for the 5-HT2B receptor. The assay was performed by GPCR Profiler™ Service Laboratory, St. Charles, Mo., Millipore, Inc.

5-HT2c receptor [3] = target: T1, 5-HT2c receptor; assay: FLIPR antagonist assay at the 5-HT2c receptor (analogous to Example 3); format: cell-based
5-HT1B receptor = 5-HT1B receptor (Homo sapiens, UniProt P28222); assay: Membrane based GTPγS assay, agonist activity at 5-HT1B; format: biochemical; settings: 5-CT reference agonist, FIG. 5
Protocol: A membrane based GTPγS assay was conducted to monitor agonist activity of test compounds at the 5-HT1B receptor, summarized in FIG. 5. Test compounds were serially diluted to provide a wide concentration range sufficient to calculate EC50. The results are expressed as a percent of activation. 5-CT was used as a reference agonist.

5-HT7 receptor = 5-HT7 receptor (Homo sapiens, UniProt P34969); assay: cAMP HTRF assay, antagonist activity at 5-HT7 (analogous to Example 6); format: cell-based; settings: percent of control response to 300 nM serotonin, FIG. 4
Protocol: (§1) A cell based assay (cAMP modulation with HTRF detection) was conducted to monitor agonist activity of test compounds at the 5-HT1A receptor, summarized in FIG. 3. Test compounds were serially diluted to provide a wide concentration range sufficient to calculate EC50. The cAMP concentration was determined and results are expressed as a percent of the control response to 100 nM 8-OH-DPAT (control agonist).
The assay was performed analogously to the assay described in Example 6. Antagonist activity of test compounds at the 5-HT7 receptor, using serotonin as a control reference agonist, was measured. Test compounds were serially diluted to provide a wide concentration range sufficient to calculate IC50. The results are expressed as a percent of the control response to 300 nM serotonin.

5-HT2B receptor [4] = target: T2, 5-HT2B receptor; assay: FLIPR assay, antagonist selectivity at the 5-HT2B receptor; format: cell-based; settings: FIG. 2
Protocol: A FLIPR assay was conducted to monitor antagonist selectivity for 1-methyl-dihydroergotamine against the 5-HT2B receptor. The assay was completed with an eight point, 4 fold serial dilution series starting with 10 μM concentration to obtain full dose response curve. Percentage inhibition values were determined for 1-methyl-dihydroergotamine on the 5-HT2B receptor. Antagonist percentage inhibition determinations were obtained by assaying 1-methyl-dihydroergotamine and referencing the Emax control for the 5-HT2B receptor. The assay above was performed by GPCR Profiler™ Service Laboratory, St. Charles, Mo., Millipore, Inc.

5-HT1D receptor = 5-HT1D receptor (Homo sapiens, UniProt P28221); assay: Membrane based GTPγS assay, agonist activity at 5-HT1D; format: biochemical; settings: 5-CT reference agonist, FIG. 6
5-HT1A receptor = target: T3, 5-HT1A receptor (Homo sapiens, UniProt P08908); assay: Cell based assay (cAMP modulation with HTRF detection), agonist activity at 5-HT1A; settings: percent of control response to 100 nM 8-OH-DPAT, FIG. 3
T3 sequence (P08908 1-422): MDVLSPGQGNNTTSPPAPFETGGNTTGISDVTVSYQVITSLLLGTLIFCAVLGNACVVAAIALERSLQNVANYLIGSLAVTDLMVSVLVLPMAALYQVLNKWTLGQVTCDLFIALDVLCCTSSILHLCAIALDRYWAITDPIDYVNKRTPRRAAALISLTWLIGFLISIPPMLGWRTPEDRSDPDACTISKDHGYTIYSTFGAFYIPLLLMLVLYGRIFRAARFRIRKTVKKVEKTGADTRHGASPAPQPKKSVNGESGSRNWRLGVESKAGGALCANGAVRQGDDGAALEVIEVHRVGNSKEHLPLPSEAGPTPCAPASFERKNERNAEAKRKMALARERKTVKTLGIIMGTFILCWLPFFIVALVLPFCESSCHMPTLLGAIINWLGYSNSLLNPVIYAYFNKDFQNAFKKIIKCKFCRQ
Protocol: as §1

[5] = FLIPR, FIG. 1, read-out: EC50, agonism of the 5-HT2B receptor

T2 sequence (P41595 whole entry): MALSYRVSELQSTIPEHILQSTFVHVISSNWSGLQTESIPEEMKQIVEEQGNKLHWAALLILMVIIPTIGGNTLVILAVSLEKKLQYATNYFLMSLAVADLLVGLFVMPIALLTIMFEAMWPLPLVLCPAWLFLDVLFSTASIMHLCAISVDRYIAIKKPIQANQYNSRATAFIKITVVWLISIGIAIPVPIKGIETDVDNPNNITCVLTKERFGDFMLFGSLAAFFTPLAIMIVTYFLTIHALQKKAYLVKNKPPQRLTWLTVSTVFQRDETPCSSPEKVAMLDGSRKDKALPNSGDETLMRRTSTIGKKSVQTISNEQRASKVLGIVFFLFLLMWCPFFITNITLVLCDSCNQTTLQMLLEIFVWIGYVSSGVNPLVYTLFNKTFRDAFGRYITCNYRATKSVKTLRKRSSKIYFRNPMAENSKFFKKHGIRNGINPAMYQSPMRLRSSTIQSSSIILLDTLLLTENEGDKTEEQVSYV
Sequence of 5-HT1B receptor (P28222 whole entry): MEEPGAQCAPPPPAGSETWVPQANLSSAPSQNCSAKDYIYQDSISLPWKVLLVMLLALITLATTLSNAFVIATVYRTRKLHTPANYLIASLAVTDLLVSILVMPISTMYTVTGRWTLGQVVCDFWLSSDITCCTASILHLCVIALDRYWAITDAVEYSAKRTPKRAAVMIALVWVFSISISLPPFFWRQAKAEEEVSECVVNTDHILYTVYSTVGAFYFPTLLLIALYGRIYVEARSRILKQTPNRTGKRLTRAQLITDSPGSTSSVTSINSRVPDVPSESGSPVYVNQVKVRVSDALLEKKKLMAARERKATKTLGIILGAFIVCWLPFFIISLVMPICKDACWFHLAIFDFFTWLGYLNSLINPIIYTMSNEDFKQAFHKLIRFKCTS
Sequence of 5-HT7 receptor (P34969 whole entry): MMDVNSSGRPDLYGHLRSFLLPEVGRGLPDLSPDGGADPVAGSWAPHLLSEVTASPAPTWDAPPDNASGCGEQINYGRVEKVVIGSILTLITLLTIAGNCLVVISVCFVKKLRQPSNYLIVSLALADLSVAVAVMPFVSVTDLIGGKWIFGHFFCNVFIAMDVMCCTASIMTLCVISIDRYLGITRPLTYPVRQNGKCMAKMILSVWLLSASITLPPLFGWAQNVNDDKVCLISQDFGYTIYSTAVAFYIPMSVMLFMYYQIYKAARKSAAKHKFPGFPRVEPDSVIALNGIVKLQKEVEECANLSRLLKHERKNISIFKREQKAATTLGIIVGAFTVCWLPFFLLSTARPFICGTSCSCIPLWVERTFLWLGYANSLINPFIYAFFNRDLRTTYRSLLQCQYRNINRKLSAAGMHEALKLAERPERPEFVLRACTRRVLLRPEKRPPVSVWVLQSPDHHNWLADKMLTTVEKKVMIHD
Sequence of 5-HT1D receptor (P28221 whole entry): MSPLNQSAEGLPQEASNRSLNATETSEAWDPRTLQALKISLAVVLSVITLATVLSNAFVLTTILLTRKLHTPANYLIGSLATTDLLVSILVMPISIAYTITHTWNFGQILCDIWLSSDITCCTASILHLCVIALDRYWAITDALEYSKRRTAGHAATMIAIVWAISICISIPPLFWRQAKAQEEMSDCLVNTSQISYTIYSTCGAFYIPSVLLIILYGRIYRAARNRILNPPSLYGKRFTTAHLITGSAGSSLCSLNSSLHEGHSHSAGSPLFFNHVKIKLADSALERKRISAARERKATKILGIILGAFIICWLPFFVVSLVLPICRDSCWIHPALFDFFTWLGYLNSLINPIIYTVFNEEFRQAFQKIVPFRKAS

For `CCCN1C[C@H](CSC)C[C@@H]2c3cccc4[nH]cc(c34)C[C@H]21` [pergolide], the “agonist activity at the 5-HT2c receptor” value (5-HT2c receptor [1]) was “no agonist activity” and the EC50 (5-HT2B receptor [2]; [5]) was 10 nM.
For `CNS(=O)(=O)Cc1ccc2[nH]cc(CCN(C)C)c2c1` [sumatriptan], the “agonist activity at the 5-HT2c receptor” value (5-HT2c receptor [1]) was “no agonist activity” and the “antagonist activity at the 5-HT2c receptor” value (5-HT2c receptor [3]; FLIPR) was “no antagonist activity”.
`CN1CC(C(=O)N[C@]2(C)O[C@@]3(O)C4CCCN4C(=O)[C@H](Cc4ccccc4)N3C2=O)CC2c3cccc4c3c(cn4C)CC21` (stereo partly shown) [MAP0057, 1-Methyl-Dihydroergotamine] gave a melting point of 216 to 218 °C, an EC50 (5-HT1B receptor) of 1.02 nM and an IC50 (5-HT7 receptor) of 69 nM. The “agonist activity at the 5-HT2c receptor” value (5-HT2c receptor [1]) was “no agonist activity”, the IC50 (5-HT2B receptor [4]) was 16 nM and the IC50 (5-HT2c receptor [3]) was 460 nM. The EC50 (5-HT1D receptor) was 0.45 nM, the EC50 (5-HT1A receptor) was 16 nM and the “agonist activity at the 5-HT2B receptor” value (5-HT2B receptor [2]; FLIPR, dilution series starting with 10 μM, FIG. 1) was “no agonist activity”.
For `CC(N)Cc1c[nH]c2ccc(O)cc12` (stereo not drawn) [alpha-Me-5HT], the EC50 (5-HT2B receptor [2]; [5]) was 0.2 nM.
For `CN1C[C@H](C(=O)N[C@]2(C)O[C@@]3(O)[C@@H]4CCCN4C(=O)[C@H](Cc4ccccc4)N3C2=O)C=C2c3cccc4[nH]cc(c34)C[C@H]21` [ergotamine], the EC50 (5-HT2c receptor [1]) was 5000 nM and the EC50 (5-HT2B receptor [2]) was 160 nM.
With `CN1C[C@H](C(=O)N[C@]2(C)O[C@@]3(O)[C@@H]4CCCN4C(=O)[C@H](Cc4ccccc4)N3C2=O)C[C@@H]2c3cccc4[nH]cc(c34)C[C@H]21` [dihydroergotamine] the “agonist activity at the 5-HT2c receptor” value (5-HT2c receptor [1]) was “no agonist activity”, the IC50 (5-HT2c receptor [3]) was 280 nM and the EC50 (5-HT2B receptor [2]) was 260 nM.
